Paper PMC9212739 (Antiviral Research, 2022)
Values joined by “and” are separate entries in the source; they are usually repeats but may differ in a detail not shown here. Equal values may be shown once. Read-outs that look alike come from different tables or passages of the source.

Assays:
[1] = test system: SARS-CoV-2 in VeroE6 TMPRSS2 cells; experiment: microbe, parasite or virus in culture; type: cell-based
[2] = target: SARS-CoV-2 ExoN nsp14/nsp10 complex (Severe acute respiratory syndrome coronavirus 2, UniProt P0DTD1); experiment: biochemical; details: read-out: % inhibition of ExoN at 5 μM
LCMV ExoN = LCMV ExoN (Mammarenavirus choriomeningitidis, UniProt P09992); experiment: biochemical; set-up: species or system Lymphocytic Choriomeningitis virus
in vitro = details: african green monkey, veroe6 tmprss2 cells
MACV ExoN = MACV ExoN (Mammarenavirus machupoense, UniProt P26578); experiment: biochemical; set-up: species or system Machupo virus
LCMV minigenome = type: cell-based
[3] = test system: LCMV, MACV and SARS-CoV-2 ExoN; type: biochemical
[4] = Severe acute respiratory syndrome coronavirus 2, VeroE6/TMPRSS2
[5] = read-out: % inhibition of ExoN at 5 μM

MACV ExoN, sequence (P26578 355-564 limits assumed): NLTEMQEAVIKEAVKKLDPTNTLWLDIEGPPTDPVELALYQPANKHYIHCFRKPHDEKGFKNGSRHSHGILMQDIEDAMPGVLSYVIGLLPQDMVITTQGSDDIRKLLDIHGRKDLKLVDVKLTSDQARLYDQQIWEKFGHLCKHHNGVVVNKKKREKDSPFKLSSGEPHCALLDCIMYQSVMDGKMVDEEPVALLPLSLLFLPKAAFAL
LCMV ExoN, sequence (P09992 357-558 limits assumed): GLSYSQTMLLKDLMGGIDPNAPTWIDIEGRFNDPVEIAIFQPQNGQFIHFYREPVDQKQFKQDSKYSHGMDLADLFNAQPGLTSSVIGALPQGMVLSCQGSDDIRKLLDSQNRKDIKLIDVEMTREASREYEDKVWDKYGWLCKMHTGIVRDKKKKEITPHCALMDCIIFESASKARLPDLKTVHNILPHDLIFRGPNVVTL

Row | SMILES | EC50 [1, 4] [µM] | inhibition at 5 µM [2] [%] | IC50 (LCMV ExoN; IC50) | inhibition at 5 µM (LCMV ExoN; [5]) [%] | CC50 at 48 h (in vitro) [µM] | EC50 [1] [µM] | IC50 (MACV ExoN; IC50) | inhibition at 5 µM (MACV ExoN; [5]) [%] | antiviral effect (LCMV minigenome) | % inhibition of ExoN at 20 μM, all ExoN [3] [%]
1 | CCC(CC)COC(=O)[C@H](C)N[P@](=O)(OC[C@H]1O[C@@](C#N)(c2ccc3c(N)ncnn23)[C@H](O)[C@@H]1O)Oc1ccccc1 [Remdesivir] | 1.5 ± 1.1 |  |  |  |  |  |  |  |  | 
2 | O=C(O)C1=CC(=C(c2ccc(O)c(C(=O)O)c2)c2ccc(O)c(C(=O)O)c2)C=CC1=O [Compound 40, Aurintricarboxyclic acid] | 27.2 ± 20.7 | 23 | 7.05 µM and 7.1 µM | 52 | > 50 | 27 | 5.57 µM and 5.6 µM | 39 | no antiviral effect | 100
